Assay results from US9301962B2, “Male contraceptive compositions and methods of use” (Baylor College of Medicine, priority 2010, dated 2016).

Experiments:
[1] = biological target: BRDT(1) (Homo sapiens, UniProt Q58F21); details: alpha-screen, H4Kac4 competition
Protocol: The N-terminal domain of human BRDT was cloned, expressed in E-Coli and purified as previously described (Filippakopoulos et al.).
Assays were performed with minor modifications from the manufacturer's protocol (PerkinElmer, USA). All reagents were diluted in 50 mM HEPES, 150 mM NaCl, 0.1% w/v BSA, 0.01% w/v Tween20, pH 7.5 and allowed to equilibrate to room temperature prior to addition to plates. After addition of Alpha beads to master solutions all subsequent steps were performed in low light conditions. […] Addition to wells was performed with either a multichannel pipet (for optimization experiments) or a Biotek EL406 liquid handler. After a 1 minute 1000 rpm spin-down, 100 nl of compounds from stock plates were added by pin transfer using a Janus Workstation (PerkinElmer, USA). The streptavidin-coated donor beads (25 μg/ml final) were added as with previous solution in a 2×, 10 μl volume. Following this addition, the plates were sealed with foil to block light exposure and to prevent evaporation. The plates were spun down again at 1000 rpm for 1 minute.

[2] = system: C57BL6/J/129S5 hybrid male mice; assay: Mouse study: testes size and histology after daily i.p. JQ1
Protocol: (§1) The subsequent mixture was injected intraperitoneal into male mice at 1% of the body weight of the mouse (final amount is 50 mg/kg/day). The control was DMSO dissolved 1:10 in (2-Hydroxypropyl)-β-cyclodextrin and injected similarly. […] These studies were approved by the Administrative Committee on Laboratory Animal Care at Baylor College of Medicine, and all experiments were conducted in accordance with the NIH guide for the Care and Use of Laboratory Animals.

[3] = system: C57BL6/J/129S5 hybrid male mice; assay: Male fertility, fertilization and embryo developmental potential
Protocol: Oocytes from these females were collected from their oviductal ampulla and cultured for 2 days to determine their developmental potential post-mating (FIG. 6B).
as §1

Row | Structure (SMILES) | activity for BRDT(1) [1] | Leydig cells of the testes, histology ([2]; 50 mg/kg/day i.p.) | gross testes size compared to control males ([2]; 50 mg/kg/day i.p.) | testosterone-responsive seminal vesicles, gross appearance ([2]; 50 mg/kg/day i.p.) | testis histology ([2]; 50 mg/kg/day i.p., 6 weeks treatment) | number of spermatids positive for transition protein 1 (TNP1) ([2]; immunohistochemistry of testes) | crossing of the blood:testis boundary ([2]; inferred from effect on seminiferous tubule compartment) | mating behavior (copulation plugs) ([3]; after 5 weeks of treatment, superovulated females) | effect on impregnation of females ([3]; males treated 3 weeks, housed with 2 females each, 3 more weeks of treatment, n=3) | treated adult male mice that sired two litters after cessation ([3]; within the first month following cessation of JQ1)
1 | Cc1sc2c(c1C)C(c1ccc(Cl)cc1)=N[C@H](CC(=O)OC(C)(C)C)c1nnc(C)n1-2 (racemic) [(−)-JQ1] | inactive |  |  |  |  |  |  |  |  | 
2 | Cc1sc2c(c1C)C(c1ccc(Cl)cc1)=NC(CC(=O)OC(C)(C)C)c1nnc(C)n1-2 (racemic) [JQ1, tert-Butyl 2-(4-(4-chlorophenyl)-2,3,9-trimethyl-6H-thieno[3,2-f][1,2,4]triazolo[4,3-a][1,4]diazepin-6-yl)acetate] |  | histologically normal | grossly smaller testes | grossly normal | seminiferous tubule degeneration | reduced | capable of effectively crossing the blood:testis boundary | did not alter mating behavior | contraceptive effect | 6 of 6
